From US10829778B2, “Plants having increased tolerance to herbicides” (BASF SE, priority 2013, dated 2020)

Experiments:
[1] = biological target: T1, Hordeum HPPD (SEQ ID NO:2) (Hordeum vulgare, UniProt O48604, A164G/R146V/R147D/R148G); experiment: HPPD activity assay (HGA by HPLC), wildtype enzyme; assay type: biochemical
T1 construct: subcloned into a modified pET24D (Novagen) expression vector resulting in N-terminally His-tagged expression constructs; His tag (N); made in house; host or cells: E. coli BL21 (DE3)
Protocol: (§1) HPPD produces homogentisic acid and CO2 from 4-hydroxyphenylpyruvate (4-HPP) and O2. The activity assay for HPPD is based on the analysis of homogentisic acid by reversed phase HPLC.
(§2) The assay mixture can contain 150 mM potassium phosphate buffer pH 7.0, 50 mM L-ascorbic acid, 100 μM Catalase (Sigma-Aldrich), 1 μM FeSO4 and 0.2 units of purified HPPD enzyme in a total volume of 505 μl. 1 unit is defined as the amount of enzyme that is required to produce 1 nmol of HGA per minute at 20° C.
(§3) After a preincubation of 30 min the reaction is started by adding 4-HPP to a final concentration of 0.05 mM. The reaction is allowed to proceed for 45 min at room temperature. The reaction is stopped by the addition of 50 μl of 4.5 M phosphoric acid. The sample is filtered using a […] pore size PVDF filtration device.
(§4) 5 μl of the cleared sample is analyzed on an UPLC HSS T3 column (particle size 1.8 μm, dimensions 2.1×50 mm; Waters) by isocratic elution using 90% 20 mM NaH2PO4 pH 2.2, 10% methanol (v/v).
(§5) HGA is detected electrochemically at 750 mV (mode: DC; polarity: positive) and quantified by integrating peak areas (Empower software; Waters).
(§6) Inhibitors are dissolved in DMSO (dimethylsulfoxide) to a concentration of 0.5 mM. From this stock solution serial five-fold dilutions are prepared in DMSO, which are used in the assay. The respective inhibitor solution accounts for 1% of the assay volume. […] Activities are normalized by setting the uninhibited enzyme activity to 100%. IC50 values are calculated using non-linear regression.
(§7) Using methods which are described in the above examples or well known in the art, purified, recombinant wildtype HPPD enzymes are characterized with respect to their kinetic properties and sensitivity towards HPPD inhibiting herbicides. Apparent michaelis constants (Km) and maximal reaction velocities (Vmax) are calculated by non-linear regression with the software GraphPad Prism 5 (GraphPad Software, La Jolla, USA) using a substrate inhibition model. […] Weighted means (by standard error) of Km and IC50 values are calculated from at least three independent experiments.
(§8) Field performance of the HPPD enzyme, which is used as a herbicide tolerance trait may depend not only on its lack of sensitivity towards HPPD inhibiting herbicides but also on its activity. To assess the potential performance of a herbicide tolerance trait a tolerance index (TI) is calculated using the following formula: […]
(§9) Easy comparison and ranking of each trait is enabled by normalizing tolerance indexes on Arabidopsis wild-type HPPD.

[2] = biological target: T2, Arabidopsis HPPD (SEQ ID NO:53) (Arabidopsis thaliana, UniProt P93836); experiment: HPPD activity assay (HGA by HPLC), wildtype enzyme; assay type: biochemical
T2 construct: His6 (N); made in house; host or cells: E. coli BL21 (DE3)
T2 sequence (P93836 1-445): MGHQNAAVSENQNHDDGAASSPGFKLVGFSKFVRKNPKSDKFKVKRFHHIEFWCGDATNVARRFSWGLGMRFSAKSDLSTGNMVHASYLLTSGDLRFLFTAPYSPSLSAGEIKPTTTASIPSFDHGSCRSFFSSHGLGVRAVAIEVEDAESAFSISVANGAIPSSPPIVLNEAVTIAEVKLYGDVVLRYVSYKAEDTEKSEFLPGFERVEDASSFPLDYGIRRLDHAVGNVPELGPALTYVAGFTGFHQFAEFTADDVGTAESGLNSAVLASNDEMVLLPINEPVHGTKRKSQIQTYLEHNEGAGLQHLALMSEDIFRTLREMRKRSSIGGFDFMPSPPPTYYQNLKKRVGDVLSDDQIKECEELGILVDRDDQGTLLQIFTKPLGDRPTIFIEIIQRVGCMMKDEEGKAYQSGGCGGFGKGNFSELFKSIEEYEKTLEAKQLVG
Protocol: as §1, §2, §3, §4, §5, §6, §7, §8, §9

[3] = tested on: transgenic Arabidopsis plants expressing HvHPPD L320H; experiment: Greenhouse herbicide spray test, transgenic Arabidopsis plants (T2); assay type: in vivo, Arabidopsis thaliana; settings: for Injury evaluation: HvHPPD L320H, two weeks after treatment
Source text: (§10) For post emergence treatment, the test plants are first grown to a height of 3 to 15 cm, depending on the plant habit, and only then treated with the herbicides. For this purpose, the test plants are either sown directly and grown in the same containers, or they are first grown separately and transplanted into the test containers a few days prior to treatment.
(§11) Additionally, T1 and T2 transgenic Arabidopsis plants can be tested for improved tolerance to N-heterocyclyl-arylcarboxamides in a greenhouse studies. Herbicide injury scoring is done 2-3 weeks after treatment and is rated on a scale of 0 to 100%, 0% being no injury and 100% being complete death.

[4] = tested on: transgenic Arabidopsis plants expressing HvHPPD L320H, P321A; experiment: as above; assay type: in vivo, Arabidopsis thaliana; settings: for Injury evaluation: P321A, two weeks after treatment
Source text: as §10, §11

[5] = tested on: non-transgenic Arabidopsis plants (WT); experiment: Greenhouse herbicide spray test, Arabidopsis plants (T2); assay type: in vivo, Arabidopsis thaliana; settings: two weeks after treatment
Source text: as §10, §11

T1 sequence (O48604 whole entry R146V/R147D/R148G/A164G): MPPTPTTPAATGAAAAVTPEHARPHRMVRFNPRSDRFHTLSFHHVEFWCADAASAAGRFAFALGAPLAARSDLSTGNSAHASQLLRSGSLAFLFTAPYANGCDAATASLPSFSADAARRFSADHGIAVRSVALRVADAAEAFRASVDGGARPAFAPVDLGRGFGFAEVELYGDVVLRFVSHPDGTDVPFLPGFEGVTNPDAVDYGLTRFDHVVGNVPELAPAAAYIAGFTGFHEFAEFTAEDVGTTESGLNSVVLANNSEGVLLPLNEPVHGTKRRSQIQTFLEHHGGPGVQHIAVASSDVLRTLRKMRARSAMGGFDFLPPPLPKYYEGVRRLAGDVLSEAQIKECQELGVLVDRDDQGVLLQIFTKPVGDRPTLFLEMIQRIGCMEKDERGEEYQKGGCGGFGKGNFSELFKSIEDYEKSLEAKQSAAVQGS

How did the Ki [1] turn out when `Cc1nonc1NC(=O)c1ccc(S(C)(=O)=O)c(S(C)(=O)=O)c1C` [Inhibitor 1, 2-methyl-N-(4-methyl-1,2,5-oxadiazol-3-yl)-3,4-bis(methylsulfonyl)benzamide] was run?
The Ki was 5.6 nM.

What about the “Normalized tolerance index TI Inhibitor 1” value ([1]; Table 12, normalized to Arabidopsis HPPD, Hordeum) of the same compound?
Its value is 1.5.

And the “Normalized tolerance index TI Inhibitor 1” value ([1]; Table 16, Hordeum HPPD Wildtype (reference))?
The value was 1.

What about the “TI (tolerance index)” value ([1]; not normalized, Table 11, Hordeum enzyme) of the same compound?
The value was 2.5E−3.

What about the Ki [2] of the same compound?
The Ki was 1.6 nM.

What about the “Normalized tolerance index TI Inhibitor 1” value ([2]; Table 12, normalized to Arabidopsis HPPD SEQ ID NO:53 (reference)) of the same compound?
Its value is 1.

What about the “Normalized tolerance index TI Inhibitor 1” value ([2]; Table 15, Arabidopsis HPPD Wildtype (reference)) of the same compound?
The value was 1.

What about the “TI (tolerance index)” value ([2]; not normalized, Table 11, Arabidopsis enzyme) of the same compound?
The value was 1.6E−3.

And the “increased tolerance versus wild-type plants” value ([3]; HvHPPD L320H plants, dose of 3.125 g/ha)?
Its value is roughly 20 fold.

What about the Injury evaluation ([3]; 1.56 g/ha) of the same compound?
The Injury evaluation was 0%.

And the Injury evaluation ([3]; 3.125 g/ha)?
Its Injury evaluation is 5%.

And the Injury evaluation ([3]; 6.25 g/ha)?
Its Injury evaluation is 20%.

And the Injury evaluation ([3]; 12.5 g/ha)?
The Injury evaluation was 27%.

What about the “increased tolerance versus wild-type plants” value ([4]; P321A plants, highest dose applied) of the same compound?
Its value is 40 fold.

What about the Injury evaluation ([4]; 1.56 g/ha) of the same compound?
Its Injury evaluation is 0%.

What about the Injury evaluation ([4]; 3.125 g/ha) of the same compound?
Its Injury evaluation is 0%.

What about the Injury evaluation ([4]; 6.25 g/ha) of the same compound?
Its Injury evaluation is 2%.

And the Injury evaluation ([4]; 12.5 g/ha)?
The Injury evaluation was 2.5%.

What about the Injury evaluation ([5]; WT (control of AtHPPD events), 1.56 g/ha) of the same compound?
The Injury evaluation was 92%.

What about the Injury evaluation ([5]; WT (control of AtHPPD events), 3.125 g/ha) of the same compound?
Its Injury evaluation is 91%.

What about the Injury evaluation ([5]; WT (control of AtHPPD events), 6.25 g/ha) of the same compound?
Its Injury evaluation is 97%.

And the Injury evaluation ([5]; WT (control of AtHPPD events), 12.5 g/ha)?
Its Injury evaluation is 97%.

And the Injury evaluation ([5]; WT (control of HvHPPD events), 1.56 g/ha)?
Its Injury evaluation is 98%.

What about the Injury evaluation ([5]; WT (control of HvHPPD events), 3.125 g/ha) of the same compound?
The Injury evaluation was 98%.

What about the Injury evaluation ([5]; WT (control of HvHPPD events), 6.25 g/ha) of the same compound?
Its Injury evaluation is 100%.

What about the Injury evaluation ([5]; WT (control of HvHPPD events), 12.5 g/ha) of the same compound?
The Injury evaluation was 100%.
